Test results published in patent US10899769B2, “Imidazopiperazinone inhibitors of transcription activating proteins” (Board of Regents, The University of Texas System, priority 2018, dated 2021).

Key:
[1] = target: BRD4(49-170) bromodomain (Homo sapiens (Human), UniProt O60885); test: BRD4 AlphaScreen Assay; conditions: binding to biotin-H4(1-21) Ac-K5/8/12/16
Method in brief: (§1)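 AlphaScreen binding of GST-bromodomain to biotin-H4(1-21) Ac-K5/8/12/16: 5 nM CBP with 20 nM peptide, or 2.5 nM BRD4 with 10 nM peptide, in 50 mM HEPES 7.5, […], 1 mM TCEP, 0.003% Tween-20. Compound preincubated 30 min, then beads 2 h, room temperature. IC50 from variable-slope fit.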

[2] = target: GST-CBP(1081-1197) bromodomain (Homo sapiens (Human), UniProt Q92793); test: CBP AlphaScreen Assay; conditions: binding to biotin-H4(1-21) Ac-K5/8/12/16
Method in brief: as §1

Sequence of GST-CBP(1081-1197) bromodomain (Q92793 1081-1197): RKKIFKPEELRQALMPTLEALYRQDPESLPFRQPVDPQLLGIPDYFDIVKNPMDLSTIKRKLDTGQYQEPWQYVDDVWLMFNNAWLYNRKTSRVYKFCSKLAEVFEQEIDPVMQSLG

Row | SMILES | IC50 [1] [nM] | IC50 [2] [nM]
1 | CC1C(=O)N(C)Cc2c(-c3cccc4nc(-c5cnn(C)c5)c(C(F)F)cc34)nc(C3CNC3)n21 (centres unmarked) [Example 18, 3-(Azetidin-3-yl)-1-(3-(difluoromethyl)-2-(1-methyl-1H-pyrazol-4-yl)quinolin-5-yl)-5,7-dimethyl-7,8-dihydroimidazo[1,5-a]pyrazin-6(5H)-one] | 17500 | 50
2 | C[C@@H]1CN(C)C(=O)c2c(-c3cccc4nc(-c5cnn(C)c5)c(C(F)F)cc34)nc(C3CCOCC3)n21 [Example 5a, (R)-1-(3-(Difluoromethyl)-2-(1-methyl-1H-pyrazol-4-yl)quinolin-5-yl)-5,7-dimethyl-3-(tetrahydro-2H-pyran-4-yl)-7,8-dihydroimidazo[1,5-a]pyrazin-(5H)-one] | 353 | 4
3 | Cc1c(-c2cc3cccc(-c4nc(C5CC5)n5c4CN(C)C(=O)C5C)c3cn2)cnn1C (centres unmarked) [Example 59, 3-cyclopropyl-1-(3-(1,5-dimethyl-1H-pyrazol-4-yl)isoquinolin-8-yl)-5,7-dimethyl-7,8-dihydroimidazo[1,5-a] pyrazin-6(5H)-one] | 496 | 4
4 | Cc1cn(-c2nc3cccc(-c4nc(C5CC5)n5c4CN(C)C(=O)C5C)c3cc2C(F)F)nn1 (centres unmarked) [Example 12, 3-cyclopropyl-1-(3-(difluoromethyl)-2-(4-methyl-1H-1,2,3-triazol-1-yl)quinolin-5-yl)-5,7-dimethyl-7,8-dihydroimidazo[1,5-a]pyrazin-6(5H)-one] | 130 | 3
5 | Cc1nn(C)cc1-c1cc2ccc(F)c(-c3nc(C4CCOCC4)n4c3CN(C)C(=O)C4C)c2cn1 (single isomer, unassigned) [Example 91b, 1-(3-(1,3-dimethyl-1H-pyrazol-4-yl)-7-fluoroisoquinolin-8-yl)-5,7-dimethyl-3-(tetrahydro-2H-pyran-4-yl)-7,8-dihydroimidazo[1,5-a] pyrazin-6(5H)-one] | 287 | 3
6 | CNC(=O)N1CCC(c2nc(-c3cccc4nc(-c5cnn(C)c5)c(C(F)F)cc34)c3n2C(C)C(=O)N(C)C3)CC1 (centres unmarked) [Example 79, 4-(1-(3-(difluoromethyl)-2-(1-methyl-1H-pyrazol-4-yl)quinolin-5-yl)-5,7-dimethyl-6-oxo-5,6,7,8-tetrahydroimidazo[1,5-a]pyrazin-3-yl)-N-methylpiperidine-1-carboxamide] | 2430 | 39
7 | CC1C(=O)N(C)Cc2c(-c3ccc4sccc4c3)nc(C3CC3)n21 (centres unmarked) [Example 52, 1-(benzo[b]thiophen-5-yl)-3-cyclopropyl-5,7-dimethyl-7,8-dihydroimidazo[1,5-a] pyrazin-6(5H)-one] | 487 | 94
8 | Cc1nn(C)cc1-c1nc2cccc(-c3nc(C4CC4)n4c3CN(C)C(=O)C4C)c2cc1C(F)F (centres unmarked) [Example 65, 3-cyclopropyl-1-(3-(difluoromethyl)-2-(1,3-dimethyl-1H-pyrazol-4-yl)quinolin-5-yl)-5,7-dimethyl-7,8-dihydroimidazo[1,5-a] pyrazin-6(5H)-one] | 426 | 17
9 | CC1C(=O)N(C)Cc2c(-c3cccc4nc(-c5cnn(C)c5)c(C(F)F)cc34)nc(C3CCN(CC(F)F)CC3)n21 (centres unmarked) [Example 78, 3-(1-(2,2-difluoroethyl)piperidin-4-yl)-1-(3-(difluoromethyl)-2-(1-methyl-1H-pyrazol-4-yl)quinolin-5-yl)-5,7-dimethyl-7,8-dihydroimidazo[1,5-a] pyrazin-6(5H)-one] | 3770 | 41
10 | CC1C(=O)N(C)Cc2c(-c3cc4c(-c5cnn(C)c5)nn(C)c4cc3F)nc(C3CCOCC3)n21 (centres unmarked) [Example 43, 1-(6-Fluoro-1-methyl-3-(1-methyl-1H-pyrazol-4-yl)-1H-indazol-5-yl)-5,7-dimethyl-3-(tetrahydro-2H-pyran-4-yl)-7,8-dihydroimidazo[1,5-a]pyrazin-6(5H)-one 2,2,2-trifluoroacetate] | 1440 | 6
11 | CC(=O)N1CC(c2nc(-c3cccc4nc(-c5cnn(C)c5)c(C(F)F)cc34)c3n2C(C)C(=O)N(C)C3)C1 (centres unmarked) [Example 19, 3-(1-Acetylazetidin-3-yl)-1-(3-(difluoromethyl)-2-(1-methyl-1H-pyrazol-4-yl)quinolin-5-yl)-5,7-dimethyl-7,8-dihydroimidazo[1,5-a]pyrazin-6(5H)-one] | 5900 | 41

The remaining lines, values ahead:

Row | IC50 [1] [nM] | IC50 [2] [nM] | SMILES
12 | ≥ 25000 | 1610 | Cc1cn(-c2cc3ccc(F)c(-c4nc(C5CCOCC5)n5c4CN(C)C(=O)C5C)c3cn2)cn1 (single isomer, unassigned) [Example 33a, 1-(7-fluoro-3-(4-methyl-1H-imidazol-1-yl)isoquinolin-8-yl)-5,7-dimethyl-3-(tetrahydro-2H-pyran-4-yl)-7,8-dihydroimidazo[1,5-a]pyrazin-6(5H)-one]
13 | 3480 | 27 | Cc1ccc2cc(-c3ccn(C)n3)ncc2c1-c1nc(C2CCOCC2)n2c1CN(C)C(=O)C2C (centres unmarked) [Example 105, 5,7-dimethyl-1-(7-methyl-3-(1-methyl-1H-pyrazol-3-yl)isoquinolin-8-yl)-3-(tetrahydro-2H-pyran-4-yl)-7,8-dihydroimidazo[1,5-a] pyrazin-6(5H)-one]
14 | 76 | 1 | Cc1nn(C)cc1-c1cc2cccc(-c3nc(C4CC4)n4c3CN(C)C(=O)C4C)c2cn1 (centres unmarked) [Example 63, 3-cyclopropyl-1-(3-(1,3-dimethyl-1H-pyrazol-4-yl)isoquinolin-8-yl)-5,7-dimethyl-7,8-dihydroimidazo[1,5-a] pyrazin-6(5H)-one]
15 | 232 | 1 | CC1C(=O)N(C)Cc2c(-c3cccc4cc(-c5ccn(C)n5)ncc34)nc(C3CCOCC3)n21 (centres unmarked) [Example 86, 5,7-dimethyl-1-(3-(1-methyl-1H-pyrazol-3-yl)isoquinolin-8-yl)-3-(tetrahydro-2H-pyran-4-yl)-7,8-dihydroimidazo[1,5-a] pyrazin-6(5H)-one]
16 | > 25000 | 68 | CC1C(=O)N(C)Cc2c(-c3cccc4cc(-c5noc(=O)[nH]5)ncc34)nc(C3CC3)n21 (single isomer, unassigned) [Example 44a, 3-(8-(3-Cyclopropyl-5,7-dimethyl-6-oxo-5,6,7,8-tetrahydroimidazo[1,5-a]pyrazin-1-yl)isoquinolin-3-yl)-1,2,4-oxadiazol-5(4H)-one]
17 | 353 | 3 | CC1C(=O)N(C)Cc2c(-c3cccc4cc(N5CCOCC5)ncc34)nc(C3CCOCC3)n21 (single isomer, unassigned) [Example 16b, 5,7-Dimethyl-1-(3-morpholinoisoquinolin-8-yl)-3-(tetrahydro-2H-pyran-4-yl)-7,8-dihydroimidazo[1,5-a]pyrazin-6(5H)-one]
18 | 1460 | 1 | CC1C(=O)N(C)Cc2c(-c3cccc4cc(-c5noc(=O)[nH]5)ncc34)nc(C3CC3)n21 (single isomer, unassigned) [Example 44b, 3-(8-(3-Cyclopropyl-5,7-dimethyl-6-oxo-5,6,7,8-tetrahydroimidazo[1,5-a]pyrazin-1-yl)isoquinolin-3-yl)-1,2,4-oxadiazol-5(4H)-one]
19 | 25000 | 2670 | C[C@H]1C(=O)N(C)Cc2c(-c3cccc4nc(-c5cnn(C)c5)c(C(F)F)cc34)nc(C3CCOCC3)n21 [Example 5b, (S)-1-(3-(difluoromethyl)-2-(1-methyl-1H-pyrazol-4-yl)quinolin-5-yl)-5,7-dimethyl-3-(tetrahydro-2H-pyran-4-yl)-7,8-dihydroimidazo[1,5-a]pyrazin-6(5H)-one]
20 | 101 | 1 | Cc1nn(C)cc1-c1cc2cccc(-c3nc(C4CCOCC4)n4c3CN(C)C(=O)C4C)c2cn1 (centres unmarked) [Example 88, 1-(3-(1,3-dimethyl-1H-pyrazol-4-yl)isoquinolin-8-yl)-5,7-dimethyl-3-(tetrahydro-2H-pyran-4-yl)-7,8-dihydroimidazo[1,5-a] pyrazin-6(5H)-one]
21 | 10600 | 31 | CN1Cc2c(-c3cccc4nc(-c5cnn(C)c5)c(C(F)(F)F)cc34)nc(C3CCOCC3)n2CC1=O [Example 95, 7-methyl-1-(2-(1-methyl-1H-pyrazol-4-yl)-3-(trifluoromethyl)quinolin-5-yl)-3-(tetrahydro-2H-pyran-4-yl)-7,8-dihydroimidazo[1,5-a] pyrazin-6(5H)-one]
22 | 188 | 2 | CC1C(=O)N(C)Cc2c(-c3cccc4cc(C5CCOCC5)ncc34)nc(C3CC3)n21 (centres unmarked) [Example 58, 3-cyclopropyl-5,7-dimethyl-1-(3-(tetrahydro-2H-pyran-4-yl)isoquinolin-8-yl)-7,8-dihydroimidazo[1,5-a] pyrazin-6(5H)-one]
23 | ≥ 25000 | 145 | CN1Cc2c(-c3cccc4cc(N5CCOCC5)ncc34)nc(C3CCOCC3)n2CC1=O [Example 94, 7-methyl-1-(3-morpholinoisoquinolin-8-yl)-3-(tetrahydro-2H-pyran-4-yl)-7,8-dihydroimidazo[1,5-a] pyrazin-6(5H)-one]
24 | 18100 | 45 | CN1Cc2c(-c3cccc4cc(C5CCOCC5)ncc34)nc(C3CCOCC3)n2CC1=O [Example 99, 7-methyl-3-(tetrahydro-2H-pyran-4-yl)-1-(3-(tetrahydro-2H-pyran-4-yl)isoquinolin-8-yl)-7,8-dihydroimidazo[1,5-a] pyrazin-6(5H)-one]
25 | 667 | 2 | Cc1cn(-c2cc3cccc(-c4nc(C5CC5)n5c4CN(C)C(=O)C5C)c3cn2)cn1 (centres unmarked) [Example 70, 3-cyclopropyl-5,7-dimethyl-1-(3-(4-methyl-1H-imidazol-1-yl)isoquinolin-8-yl)-7,8-dihydroimidazo[1,5-a] pyrazin-6(5H)-one]
